Measurements as given in paper PMC4522903 (Chemical communications (Cambridge, England), 2015).

Target: T1, Atm1p (Saccharomyces cerevisiae, UniProt P40416)
T1 sequence (P40416 27-690): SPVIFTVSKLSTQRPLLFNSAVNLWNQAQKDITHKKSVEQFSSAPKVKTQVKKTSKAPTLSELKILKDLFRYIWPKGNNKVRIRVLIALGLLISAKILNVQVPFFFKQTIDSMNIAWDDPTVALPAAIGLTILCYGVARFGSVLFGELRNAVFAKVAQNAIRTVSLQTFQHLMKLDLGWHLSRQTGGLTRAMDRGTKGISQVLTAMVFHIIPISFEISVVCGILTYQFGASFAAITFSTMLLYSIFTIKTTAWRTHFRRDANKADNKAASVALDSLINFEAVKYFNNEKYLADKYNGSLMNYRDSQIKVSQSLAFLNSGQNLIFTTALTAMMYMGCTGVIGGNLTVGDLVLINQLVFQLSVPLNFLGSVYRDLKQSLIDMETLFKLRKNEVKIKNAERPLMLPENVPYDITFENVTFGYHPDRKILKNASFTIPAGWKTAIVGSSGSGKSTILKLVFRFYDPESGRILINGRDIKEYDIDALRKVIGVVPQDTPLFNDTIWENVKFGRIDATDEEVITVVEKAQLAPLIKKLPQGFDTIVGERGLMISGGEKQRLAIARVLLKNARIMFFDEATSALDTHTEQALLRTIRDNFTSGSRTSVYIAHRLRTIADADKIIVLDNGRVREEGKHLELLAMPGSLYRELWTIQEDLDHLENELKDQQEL
Test: titration of labeled cluster to Atm1p
Type: binding
Conditions: labelled compound

Substance: fluorescein-labeled glutathione [2Fe-2S] cluster
- Kd: 118 ± 11 µM
